Data from PubChem BioAssay AID256 (DTP/NCI, 2004).
Where “and” joins values, the source holds several entries; their conditions need not be identical. Equal entries are not always repeated. Inconclusive results and toxic doses are left out.

Test system: CD2F1 mice, L1210 leukemia ip, survival T/C
Assay: NCI In Vivo Anticancer Drug Screen. Data for tumor model L1210 Leukemia (intraperitoneal) in CD2F1 (CDF1) mice
Details: higher = longer survival
Summary of the method: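 Tumor-bearing mice (transplanted tumor) were split into treated and vehicle control groups, and the measured endpoint of each treated group was divided by that of its vehicle controls.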

[1] = endpoint: mean survival time, dose: 100.0 mg/kg/injection, schedule: Q04DX003 (ip), vehicle: saline with Tween-80
[2] = endpoint: mean survival time, dose: 200.0 mg/kg/injection, schedule: Q04DX003 (ip), vehicle: saline with Tween-80

For `CN1N=C(N)c2cn(C3OC(COP(=O)(O)O)C(O)C3O)c3ncnc1c23` (configuration not stated), the T/C (endpoint: mean survival time, dose: 6.25 mg/kg/injection, schedule: Q01DX009 (ip), vehicle: water) was 123 % of control, the T/C (endpoint: mean survival time, dose: 7.81 mg/kg/injection, schedule: Q01DX005 (iv), vehicle: water) was 109 % of control and the T/C (endpoint: mean survival time, dose: 10.0 mg/kg/injection, schedule: Q01DX005 (ip), vehicle: water) was 150 % of control. The T/C (endpoint: mean survival time, dose: 11.73 mg/kg/injection, schedule: Q01DX005 (iv), vehicle: water) was 112 % of control, the T/C (endpoint: mean survival time, dose: 12.5 mg/kg/injection, schedule: Q01DX009 (ip), vehicle: water) was 155 % of control and the T/C (endpoint: mean survival time, dose: 15.63 mg/kg/injection, schedule: Q01DX005 (iv), vehicle: water) was 114 % of control. The T/C (endpoint: mean survival time, dose: 20.0 mg/kg/injection, schedule: Q01DX005 (ip), vehicle: water) was 152 % of control, the T/C (endpoint: mean survival time, dose: 23.45 mg/kg/injection, schedule: Q01DX005 (iv), vehicle: water) was 119 % of control and the T/C (endpoint: mean survival time, dose: 23.45 mg/kg/injection, schedule: Q01DX009 (ip), vehicle: water) was 153 % of control. For the same molecule, the T/C (endpoint: mean survival time, dose: 31.25 mg/kg/injection, schedule: Q01DX009 (ip), vehicle: water) was 159 % of control, the T/C (endpoint: mean survival time, dose: 40.0 mg/kg/injection, schedule: Q01DX005 (ip), vehicle: water) was 157 % of control and 163 % of control and the T/C (endpoint: mean survival time, dose: 46.9 mg/kg/injection, schedule: Q01DX005 (iv), vehicle: water) was 151 % of control. The T/C (endpoint: mean survival time, dose: 46.9 mg/kg/injection, schedule: Q01DX009 (ip), vehicle: water) was 156 % of control and 174 % of control, the T/C (endpoint: mean survival time, dose: 62.5 mg/kg/injection, schedule: Q01DX005 (iv), vehicle: water) was 157 % of control and the T/C (endpoint: mean survival time, dose: 62.5 mg/kg/injection, schedule: Q01DX009 (ip), vehicle: water) was 161 % of control. For the same molecule, the T/C (endpoint: mean survival time, dose: 80.0 mg/kg/injection, schedule: Q01DX005 (ip), vehicle: water) was 163 % of control and 195 % of control, the T/C (endpoint: median survival time, dose: 6.25 mg/kg/injection, schedule: Q03HX024 (ip), vehicle: alkali diluted with water) was 156 % of control and the T/C (endpoint: median survival time, dose: 12.5 mg/kg/injection, schedule: Q03HX024 (ip), vehicle: alkali diluted with water) was 97 % of control. The T/C (endpoint: median survival time, dose: 24.0 mg/kg/injection, schedule: Q01DX005 (ip), vehicle: water) was 150 % of control, the T/C (endpoint: median survival time, dose: 24.0 mg/kg/injection, schedule: Q01DX009 (ip), vehicle: water) was 157 % of control and the T/C (endpoint: median survival time, dose: 25.0 mg/kg/injection, schedule: Q01DX001 (ip), vehicle: alkali diluted with water) was 97 % of control. The T/C (endpoint: median survival time, dose: 25.0 mg/kg/injection, schedule: Q01DX009 (ip), vehicle: alkali diluted with water) was 168 % of control, the T/C (endpoint: median survival time, dose: 25.0 mg/kg/injection, schedule: Q04DX003 (ip), vehicle: alkali diluted with water) was 151 % of control and the T/C (endpoint: median survival time, dose: 35.0 mg/kg/injection, schedule: Q01DX001 (ip), vehicle: water) was 120 % of control. For the same molecule, the T/C (endpoint: median survival time, dose: 35.0 mg/kg/injection, schedule: Q01DX005 (oral), vehicle: water) was 95 % of control, the T/C (endpoint: median survival time, dose: 35.0 mg/kg/injection, schedule: Q01DX009 (ip), vehicle: water) was 167 % of control and the T/C (endpoint: median survival time, dose: 35.0 mg/kg/injection, schedule: Q01DX009 (oral), vehicle: water) was 108 % of control. For the same molecule, the T/C (endpoint: median survival time, dose: 50.0 mg/kg/injection, schedule: Q01DX001 (ip), vehicle: alkali diluted with water) was 96 % of control, the T/C (endpoint: median survival time, dose: 50.0 mg/kg/injection, schedule: Q01DX009 (ip), vehicle: alkali diluted with water) was 187 % of control and the T/C (endpoint: median survival time, dose: 50.0 mg/kg/injection, schedule: Q04DX003 (ip), vehicle: alkali diluted with water) was 151 % of control. For the same molecule, the T/C (endpoint: median survival time, dose: 53.0 mg/kg/injection, schedule: Q01DX001 (ip), vehicle: water) was 112 % of control, the T/C (endpoint: median survival time, dose: 53.0 mg/kg/injection, schedule: Q01DX001 (oral), vehicle: water) was 105 % of control and the T/C (endpoint: median survival time, dose: 53.0 mg/kg/injection, schedule: Q01DX005 (iv), vehicle: water) was 155 % of control. The T/C (endpoint: median survival time, dose: 53.0 mg/kg/injection, schedule: Q01DX005 (oral), vehicle: water) was 101 % of control, the T/C (endpoint: median survival time, dose: 53.0 mg/kg/injection, schedule: Q01DX009 (ip), vehicle: water) was 182 % of control and the T/C (endpoint: median survival time, dose: 53.0 mg/kg/injection, schedule: Q01DX009 (oral), vehicle: water) was 101 % of control. For the same molecule, the T/C (endpoint: median survival time, dose: 80.0 mg/kg/injection, schedule: Q01DX001 (oral), vehicle: water) was 103 % of control, the T/C (endpoint: median survival time, dose: 80.0 mg/kg/injection, schedule: Q01DX005 (ip), vehicle: water) was 155 % of control and the T/C (endpoint: median survival time, dose: 80.0 mg/kg/injection, schedule: Q01DX005 (iv), vehicle: water) was 158 % of control. The T/C (endpoint: median survival time, dose: 80.0 mg/kg/injection, schedule: Q01DX005 (oral), vehicle: water) was 102 % of control, the T/C (endpoint: median survival time, dose: 80.0 mg/kg/injection, schedule: Q01DX009 (ip), vehicle: water) was 185 % of control and the T/C (endpoint: median survival time, dose: 80.0 mg/kg/injection, schedule: Q01DX009 (oral), vehicle: water) was 106 % of control. The T/C (endpoint: median survival time, dose: 100.0 mg/kg/injection, schedule: Q01DX001 (ip), vehicle: alkali diluted with water) was 96 % of control, the T/C (endpoint: median survival time, dose: 100.0 mg/kg/injection, schedule: Q01DX009 (ip), vehicle: alkali diluted with water) was 200 % of control and the T/C (endpoint: median survival time, dose: 100.0 mg/kg/injection, schedule: Q01DX009 (oral), vehicle: alkali diluted with water) was 104 % of control. The T/C (endpoint: median survival time, dose: 100.0 mg/kg/injection, schedule: Q04DX003 (ip), vehicle: alkali diluted with water) was 162 % of control, the T/C (endpoint: median survival time, dose: 120.0 mg/kg/injection, schedule: Q01DX001 (oral), vehicle: water) was 105 % of control and the T/C (endpoint: median survival time, dose: 120.0 mg/kg/injection, schedule: Q01DX005 (ip), vehicle: water) was 161 % of control. For the same molecule, the T/C (endpoint: median survival time, dose: 120.0 mg/kg/injection, schedule: Q01DX005 (oral), vehicle: water) was 105 % of control, the T/C (endpoint: median survival time, dose: 120.0 mg/kg/injection, schedule: Q01DX009 (ip), vehicle: water) was 150 % of control and the T/C (endpoint: median survival time, dose: 120.0 mg/kg/injection, schedule: Q01DX009 (oral), vehicle: water) was 103 % of control. The T/C (endpoint: median survival time, dose: 180.0 mg/kg/injection, schedule: Q01DX001 (oral), vehicle: water) was 101 % of control, the T/C (endpoint: median survival time, dose: 180.0 mg/kg/injection, schedule: Q01DX005 (oral), vehicle: water) was 107 % of control and the T/C (endpoint: median survival time, dose: 180.0 mg/kg/injection, schedule: Q01DX009 (oral), vehicle: water) was 102 % of control. For the same molecule, the T/C (endpoint: median survival time, dose: 200.0 mg/kg/injection, schedule: Q01DX009 (oral), vehicle: alkali diluted with water) was 103 % of control, the T/C (endpoint: median survival time, dose: 200.0 mg/kg/injection, schedule: Q04DX003 (ip), vehicle: alkali diluted with water) was 150 % of control and the T/C (endpoint: median survival time, dose: 270.0 mg/kg/injection, schedule: Q01DX001 (oral), vehicle: water) was 101 % of control. For the same molecule, the T/C (endpoint: median survival time, dose: 270.0 mg/kg/injection, schedule: Q01DX005 (oral), vehicle: water) was 110 % of control, the T/C (endpoint: median survival time, dose: 270.0 mg/kg/injection, schedule: Q01DX009 (oral), vehicle: water) was 112 % of control and the T/C (endpoint: median survival time, dose: 400.0 mg/kg/injection, schedule: Q01DX009 (oral), vehicle: alkali diluted with water) was 114 % of control. For the same molecule, the T/C (endpoint: median survival time, dose: 405.0 mg/kg/injection, schedule: Q01DX001 (oral), vehicle: water) was 102 % of control, the T/C (endpoint: median survival time, dose: 800.0 mg/kg/injection, schedule: Q01DX009 (oral), vehicle: alkali diluted with water) was 120 % of control and the T/C (endpoint: median survival time, dose: 1600.0 mg/kg/injection, schedule: Q01DX009 (oral), vehicle: alkali diluted with water) was 122 % of control.

For `O=C(NCCCN1CCOCC1)c1ccc(C(=O)NCCCN2CCOCC2)cc1`, the T/C (endpoint: mean survival time, dose: 100.0 mg/kg/injection, schedule: Q01DX001 (ip), vehicle: saline) was 95 % of control, the T/C (endpoint: mean survival time, dose: 200.0 mg/kg/injection, schedule: Q01DX001 (ip), vehicle: saline) was 98 % of control and the T/C (endpoint: mean survival time, dose: 400.0 mg/kg/injection, schedule: Q01DX001 (ip), vehicle: saline) was 101 % of control.

`O=[n+]1c2ccccc2n([O-])c2ccccc21.[Cl][Ni][Cl]` was tested, and the T/C (endpoint: median survival time, dose: 1.56 mg/kg/injection, schedule: Q01DX009 (ip), vehicle: saline with Tween-80) was 98 % of control, the T/C (endpoint: median survival time, dose: 3.12 mg/kg/injection, schedule: Q01DX009 (ip), vehicle: saline with Tween-80) was 92 % of control and the T/C (endpoint: median survival time, dose: 6.25 mg/kg/injection, schedule: Q01DX009 (ip), vehicle: saline with Tween-80) was 103 % of control. The T/C (endpoint: median survival time, dose: 12.5 mg/kg/injection, schedule: Q01DX009 (ip), vehicle: saline with Tween-80) was 109 % of control and the T/C (endpoint: median survival time, dose: 25.0 mg/kg/injection, schedule: Q01DX009 (ip), vehicle: saline with Tween-80) was 113 % of control.

With `O=C(c1ccccc1)N(CCCCl)C(=O)N(CCCCl)C(=O)c1ccccc1` the T/C [1] was 105 % of control, the T/C [2] was 100 % of control and the T/C (endpoint: mean survival time, dose: 400.0 mg/kg/injection, schedule: Q04DX003 (ip), vehicle: saline with Tween-80) was 108 % of control.

`Cc1ccc(S(=O)(=O)CC(=O)O)cc1` was tested, and the T/C [1] was 102 % of control and the T/C [2] was 102 % of control.

For `Cc1ncc(COP(=O)(O)O)c(C=NC(Cc2ccc(O)c(O)c2)C(=O)O)c1O.O.[Cu]` (configuration not stated), the T/C (endpoint: mean survival time, dose: 12.5 mg/kg/injection, schedule: Q01DX001 (ip), vehicle: saline) was 100 % of control, the T/C (endpoint: mean survival time, dose: 25.0 mg/kg/injection, schedule: Q01DX001 (ip), vehicle: saline) was 93 % of control and the T/C (endpoint: mean survival time, dose: 50.0 mg/kg/injection, schedule: Q01DX001 (ip), vehicle: saline) was 86 % of control.

For `CCCCCCCCCCCCOC(=O)C[n+]1cccc(C(=O)Nc2ccc(Cl)cc2)c1`, the T/C (endpoint: mean survival time, dose: 25.0 mg/kg/injection, schedule: Q01DX009 (ip), vehicle: saline with Tween-80) was 101 % of control, the T/C (endpoint: mean survival time, dose: 50.0 mg/kg/injection, schedule: Q01DX009 (ip), vehicle: saline with Tween-80) was 96 % of control and the T/C [1] was 103 % of control.
